# Reference: PubChem BioAssay AID1863 (Southern Research Specialized Biocontainment Screening …, 2009)
# Test system: S. Typhimurium PhoP-regulated promoter GFP reporter, 4 h
# Assay: inhibitors of PhoP regulon expression, primary screen, Salmonella Typhimurium, GFP reporter (AID 1863)
row,SMILES,IC50 [µM]
1,c1ccc2c(c1)Sc1ccccc1N2CC1CN2CCC1CC2 (configuration not stated),133
2,C#CCOCCOCCOCCNc1nc(N2CCN(C(=O)CCCCCCCCCCNC(=O)[C@H](CCCN=C(N)N)n3cc(C[C@@H](C)CC)nn3)CC2)nc(N2CCN(C(=O)CCCCCCCCCCNC(=O)[C@@H]([C@H](C)CC)n3cc(CCCCCN)nn3)CC2)n1,83.1
3,O=[N+]([O-])c1cc(Cl)c(O)c2ncccc12,6.16
4,O=C(NC(=S)NNC(=O)c1ccccc1O)c1ccco1,71.5
5,CN(C)C1C(=O)C(C(N)=O)=C(O)C2(O)C(=O)C3=C(O)c4c(O)cccc4C(C)(O)C3C(O)C12 (configuration not stated),1.7
6,CC1CCc2cc(F)cc3c(=O)c(C(=O)O)cn1c23 (configuration not stated),5.94
7,CCCCC(CC)CN=C(N)NC(N)=NCCCCCCN=C(N)NC(N)=NCC(CC)CCCC (configuration not stated),7.11
8,CCCCCCCCCCCCCCCC[N+](C)(C)CCN(Cc1ccc(OC)cc1)c1ncccn1,30.2
9,c1cnc2c(c1)ccc1cccnc12,39.5
10,NC(N)=NN=C1CCCCCCCCCCC1,100
11,Cc1ccc(-c2c[n+](CC(=O)Nc3nc(-c4ccc(F)cc4)cs3)c3n2CCC3)cc1,67.8
12,O=C(Nc1nc(-c2ccccn2)cs1)c1ccc(Cl)s1,69.3
13,Nc1nc2ccccc2n1Cc1ccc(Cl)c(Cl)c1,82.9
14,Cc1sc2ncnc(N/N=C/c3ccccc3O)c2c1C,82.2
15,CCCCN(CCCC)C(=O)c1cn(CC)c2cc(N3CCN(C)CC3)c(F)cc2c1=O,11.4
16,C/C(=N\Nc1nc2ccccc2[nH]1)c1ccccn1,34.3
17,Oc1cc(Cl)ccc1Oc1ccc(Cl)cc1Cl,0.82
18,NC1=NC[C@@H](Cc2ccc(O)cc2)N1CCCCC1CCCCC1,31.2
19,Cc1[nH]n(-c2ccccc2)c(=O)c1/C=N/Nc1nncc(-c2ccccc2)n1,29.5

row,SMILES,IC50 [µM]
1,Cc1cc(C)n(-c2nc(NCCN(C)C)c3c4c(sc3n2)CCCC4)n1,103
2,CCCCCCCCCCCCCCCC[n+]1ccc(/C=N/O)cc1,33
3,NC1=NC[C@H](Cc2ccccc2)N1CCCCC1CCCCC1,47.7
4,O=C(N[C@H](CO)[C@H](O)c1ccc([N+](=O)[O-])cc1)C(Cl)Cl,9.52
5,O=Nc1ccc(O)c2ncccc12,56.3
6,O=C(N/N=C/c1cc([N+](=O)[O-])ccc1O)C1CC1,66.5
7,O=C(Nc1ccc(Cl)c(Cl)c1)Nc1ccccc1O,135
8,COc1cc(Cc2cc(N)nc(N)n2)cc(OC)c1OC,4.97
9,CCOc1ccc(Nc2c3ccccc3nc3ccccc23)cc1,77.7
10,CCc1ccc(-c2nn(-c3ccccc3)cc2CSC(=N)N)cc1,37.1
11,Cc1ccc(S(=O)(=O)Nc2cc(Cl)c(O)c3ncccc23)cc1,52.4
12,COc1ccc(C(C[N+](=O)[O-])n2nc(C)cc2C)cc1 (configuration not stated),48.7
13,CCCCCCOC(=O)C[N+](C)(C)CCOC1CC2CCC1(C)C2(C)C (configuration not stated),40.1
14,O=C(C[n+]1cccc(CNC(=O)c2ccc(OC(F)F)cc2)c1)Nc1ccc(SC(F)F)cc1,94.1
15,O=C(C[n+]1cc(-c2ccc(Cl)cc2)n2c1CCC2)Nc1nc(-c2ccc(F)cc2)cs1,73.7
16,O=[N+]([O-])c1cc(O)c2ncccc2c1,27.9
17,CCn1nc(C(=O)O)c(=O)c2cc3c(cc21)OCO3,27.9
18,CCCCCCNC(=O)c1cn(CC)c2cc(N3CCN(C)CC3)c(F)cc2c1=O,23.2
19,O=C(CSc1nc2ccccc2s1)N/N=C/c1cc([N+](=O)[O-])ccc1O,109

row,SMILES,IC50 [µM]
1,CN1CCN(c2c(F)cc3c(=O)c(C(=O)O)cn4c3c2OCN4C)CC1,0.26
2,Cc1ccc(C)c(/C=C/C(=O)c2ccccc(=O)c2O)c1,89.4
3,CN(C)S(=O)(=O)c1cccc(NC(=S)N/N=C/c2cc(Br)ccc2O)c1,69.3
4,Oc1cccc(/C=N/NC(=S)Nc2cccnc2)c1O,45.6
5,CC(C)CCNCC(O)CON=C1c2ccccc2-c2ccccc21 (configuration not stated),123
6,CCCc1nnc(NC(=O)c2cn(CC)c3cc(N4CCN(C)CC4)c(F)cc3c2=O)s1,67.3
7,CCn1cc(C(=O)O)c(=O)c2cc(F)c(N3CCN(S(=O)(=O)c4ccc(NC(C)=O)cc4)CC3)cc21,135
8,Cc1cc(C(=O)N/N=C/c2ccc([N+](=O)[O-])s2)n[nH]1,42.6
9,CCCC(=O)NC(c1cccs1)c1cc([N+](=O)[O-])c2cccnc2c1O (configuration not stated),38.2
10,O=C(CSc1ccccn1)N/N=C/c1cc([N+](=O)[O-])ccc1O,58
11,CCCCCCCCCn1c2c(c(=N)c3c1CCC3)CCC2,37.2
12,CCn1cc(C(=O)NCCCN(C)C)c(=O)c2cc(F)c(N3CCN(C)CC3)cc21,49.1
13,Cc1ccccc1NC(=O)CCC(=O)N/N=C/c1cc([N+](=O)[O-])ccc1O,95.7
14,COC1C(OC(=O)c2ccc(C)[nH]2)C(O)C(Oc2ccc3c(O)c(NC(=O)c4ccc(O)c(CC=C(C)C)c4)c(=O)oc3c2Cl)OC1(C)C (configuration not stated),11.8
15,CCCCCCCCCCCCCCCC[n+]1cccc2ccccc21,24.9
16,Clc1c(OCCCn2ccnc2)ccc2ccccc12,93.3
17,CCCCCCCCn1c2c(c(=N)c3c1CCC3)CCCC2,67.5
18,O=C(N/N=C/c1cc(Cl)ccc1O)c1ccncc1,38
19,CCCCCCCCCC[n+]1cccc2c3ccccc3ccc21,23.1
